Reference: US4068074A, “Cephalosporin derivatives having at the 3-position of the cephem ring a heterocyclic thiomethyl group with a carboxy or sulfo group and at the 7-position of the cephem ring an α-heterocylic acylaminophenyl-acetamide group” (priority 1974, dated 1978)
Converted amounts (≈) assume the structure as drawn. Read-outs that look alike come from different tables or passages of the source.

Experiments:
Type in all cases: cell-based
Proteus vulgaris 0X 19US = assay: MIC against bacteria (Table I), strain (2); conditions: 0X19US
Description: (§1) Now, for illustrating the excellent pharmacological effects of the compounds of this invention, the values of MIC (γ/ml.) of the compounds against various bacteria are shown in Table 1, in which the compounds of this invention used are shown by example numbers.
(2) Proteus vulgaris 0X 19US

[1] = test system: Proteus mirabilis IXM OM-19; assay: MIC against bacteria (Table I), strain (3); conditions: IXMOM19
Description: as §1
(3) Proteus mirabilis IXM OM-19

[2] = test system: Pseudomonas aeruginosa 99 (Gentamycin resistant); assay: MIC against bacteria (Table I), strain (5)
Description: as §1
(5) Pseudomonas aeruginosa 99 (Gentamycin resistant)

[3] = test system: Psuedomonas ovalis IMA 1002; assay: MIC against bacteria (Table I), strain (6); conditions: (6) Psuedomonas ovalis IMA 1002; read-out: MIC
Description: as §1
(6) Psuedomonas ovalis IMA 1002

[4] = test system: Escherichia coli kauffmann 0-1; assay: MIC against bacteria (Table I), strain (7)
Description: as §1
(7) Escherichia coli kauffmann 0-1

[5] = test system: Klebsiella pneumoniae ATCC 10031; assay: MIC against bacteria (Table I), strain (8); conditions: ATCC10031
Description: as §1
(8) Klebsiella pneumoniae ATCC 10031

Salmonella typhi H901 W = assay: MIC against bacteria (Table I), strain (9); conditions: Salmonella enterica, TYPHI
Description: as §1
(9) Salmonella typhi H901 W

Salmonella enteritidis = assay: MIC against bacteria (Table I), strain (10); conditions: Salmonella enterica
Description: as §1
(10) Salmonella enteritidis

[6] = test system: Shigella flexneri 2a 1675; assay: MIC against bacteria (Table I), strain (11); conditions: 2A1675; (11) Shigella flexneri 2a 1675; read-out: MIC
Description: as §1

Shigella sonnei II 37148 = assay: MIC against bacteria (Table I), strain (12); conditions: II37148; (12) Shigella sonnei II 37148; read-out: MIC
Description: as §1

[7] = test system: Bacillus megatherium 10778; assay: MIC against bacteria (Table I), strain (13); conditions: (13) Bacillus megatherium 10778; read-out: MIC
Description: as §1

[8] = test system: Bacillus subtilis ATCC 6633; assay: MIC against bacteria (Table I), strain (14); conditions: ATCC6633; (14) Bacillus subtilis ATCC 6633; read-out: MIC
Description: as §1
(14) Bacillus subtilis ATCC 6633

[9] = test system: Micrococcus flavus ATCC 10240; assay: MIC against bacteria (Table I), strain (15); conditions: ATCC10240
Description: as §1
(15) Micrococcus flavus ATCC 10240

[10] = test system: Staphylococcus aureus 209P; assay: MIC against bacteria (Table I), strain (16)
Description: as §1
(16) Staphylococcus aureus 209P

[11] = test system: Staphylococcus Shimanishi; assay: MIC against bacteria (Table I), strain (17)
Description: as §1
(17) Staphylococcus Shimanishi

Staphylococcus Onuma = assay: MIC against bacteria (Table I), strain (18)
Description: as §1
(18) Staphylococcus Onuma

[12] = (2) Proteus vulgaris 0X 19US, read-out: MIC
[13] = (3) Proteus mirabilis IXM OM-19, read-out: MIC
[14] = (5) Pseudomonas aeruginosa 99 (Gentamycin resistant), read-out: MIC
[15] = (8) Klebsiella pneumoniae ATCC 10031, read-out: MIC
[16] = (10) Salmonella enteritidis, read-out: MIC
[17] = (15) Micrococcus flavus ATCC 10240, read-out: MIC
[18] = (17) Staphylococcus Shimanishi, read-out: MIC
[19] = (18) Staphylococcus Onuma, read-out: MIC

| Compound | MIC (Proteus vulgaris 0X 19US; [12]) [µg/mL] | MIC [1, 13] [µg/mL] | MIC [2, 14] [µg/mL] | MIC [3] [µg/mL] | MIC ([4]; Escherichia coli) [µg/mL] | MIC [5, 15] [µg/mL] | MIC (Salmonella typhi H901 W) [µg/mL] | MIC (Salmonella enteritidis; [16]) [µg/mL] | MIC [6] [µg/mL] | MIC (Shigella sonnei II 37148) [µg/mL] | MIC [7] [µg/mL] | MIC [8] [µg/mL] | MIC [9, 17] [µg/mL] | MIC ([10]; Staphylococcus aureus, 209P) [µg/mL] | MIC [11, 18] [µg/mL] | MIC (Staphylococcus Onuma; [19]) [µg/mL] | MIC ([9]; Micrococcus flavus) [µg/mL] | MIC ([11]; Staphylococcus) [µg/mL] | MIC ([5]; Klebsiella pneumoniae) [µg/mL] | also measured |
| --- | --- | --- | --- | --- | --- | --- | --- | --- | --- | --- | --- | --- | --- | --- | --- | --- | --- | --- | --- | --- |
| O=C(O)Cn1nc(SCC2=C(C(=O)O)N3C(=O)[C@@H](NC(=O)[C@H](NC(=O)c4cnccc4O)c4ccccc4)[C@H]3SC2)ccc1=O [Example 18, 7-[D-α-(4-hydroxynicotinoylamido)-α-phenylacetamido]-3-(1-carboxymethyl-6(1H)-pyridazinon-3-yl)thiomethyl-Δ^3-cephem-4-carboxylic acid] | 1.56 (≈ 2.39 µM) | 0.78 (≈ 1.2 µM) | 25 (≈ 38.3 µM) | 25 (≈ 38.3 µM) | 12.5 (≈ 19.2 µM) | 25 (≈ 38.3 µM) | 3.13 (≈ 4.8 µM) | 1.56 (≈ 2.39 µM) | 12.5 (≈ 19.2 µM) | 25 (≈ 38.3 µM) | 0.39 (≈ 0.598 µM) | 0.39 (≈ 0.598 µM) | 25 (≈ 38.3 µM) | 1.56 (≈ 2.39 µM) | 6.25 (≈ 9.58 µM) | 6.25 (≈ 9.58 µM) | – | – | – | – |
| COc1cc(C)ncc1C(=O)N[C@@H](C(=O)N[C@@H]1C(=O)N2C(C(=O)O)=C(CSc3nnc(SCC(=O)O)s3)CS[C@H]12)c1ccccc1 [Example 37, 7[-α-(4-methoxy-6-methylnicotinoylamido)-α-phenylacetamido]-3-(5-carboxymethyl-thio-1,3,4-thiadiazol-2yl)-thiomethyl-Δ^3-cephem-4-carboxylic acid] | 25 (≈ 35.6 µM) | – | 12.5 (≈ 17.8 µM) | 25 (≈ 35.6 µM) | 6.25 (≈ 8.89 µM) | 12.5 (≈ 17.8 µM) | 6.25 (≈ 8.89 µM) | – | 3.13 (≈ 4.45 µM) | 6.25 (≈ 8.89 µM) | 1.56 (≈ 2.22 µM) | 0.78 (≈ 1.11 µM) | – | 1.56 (≈ 2.22 µM) | – | 12.5 (≈ 17.8 µM) | 6.25 (≈ 8.89 µM) | 6.25 (≈ 8.89 µM) | – | MIC ([1]; Proteus mirabilis): 3.13 µg/mL (≈ 4.45 µM); MIC (Salmonella enteritidis; ENTERITIDIS): 3.13 µg/mL (≈ 4.45 µM) |
| Nc1nc(SCC(=O)O)cc(SCC2=C(C(=O)O)N3C(=O)[C@@H](NC(=O)[C@H](NC(=O)c4cnccc4O)c4ccccc4)[C@H]3SC2)n1 [Example 19, 7-[D-α-(4-hydroxynicotinoylamido)-α-phenylacetamido]-3-(2-amino-4-carboxymethylthiopyrimidin-6-yl)thiomethyl-Δ^3-cephem-4-carboxylic acid] | – | 0.39 (≈ 0.57 µM) | – | 50 (≈ 73.1 µM) | – | – | 3.13 (≈ 4.58 µM) | 1.56 (≈ 2.28 µM) | 6.25 (≈ 9.14 µM) | 25 (≈ 36.6 µM) | 0.78 (≈ 1.14 µM) | 0.78 (≈ 1.14 µM) | 12.5 (≈ 18.3 µM) | 3.13 (≈ 4.58 µM) | 12.5 (≈ 18.3 µM) | 12.5 (≈ 18.3 µM) | – | – | 25 (≈ 36.6 µM) | MIC (Proteus vulgaris 0X 19US; Proteus vulgaris): 6.25 µg/mL (≈ 9.14 µM); MIC ([4]; (7) Escherichia coli kauffmann 0-1, read-out: MIC): 12.5 µg/mL (≈ 18.3 µM) |
| COc1cc(O)ncc1C(=O)N[C@@H](C(=O)N[C@@H]1C(=O)N2C(C(=O)O)=C(CSc3nnc(SCC(=O)O)s3)CS[C@H]12)c1ccccc1 [Example 28, 7-[D-α-(6-hydroxy-4-methoxynicotinoylamido)-α-phenylacetamido]-3-(5-carboxymethylthio-1,3,4-thiadiazol-2-yl)thiomethyl-Δ^3-cephem-4-carboxylic acid] | 12.5 (≈ 17.7 µM) | 6.25 (≈ 8.87 µM) | – | 50 (≈ 70.9 µM) | 25 (≈ 35.5 µM) | 50 (≈ 70.9 µM) | 50 (≈ 70.9 µM) | 12.5 (≈ 17.7 µM) | 25 (≈ 35.5 µM) | 25 (≈ 35.5 µM) | 6.25 (≈ 8.87 µM) | 12.5 (≈ 17.7 µM) | 12.5 (≈ 17.7 µM) | – | 100 (≈ 142 µM) | 100 (≈ 142 µM) | – | – | – | MIC ([2]; Pseudomonas aeruginosa): 25 µg/mL (≈ 35.5 µM); MIC ([10]; (16) Staphylococcus aureus 209P, read-out: MIC): 12.5 µg/mL (≈ 17.7 µM) |
| Cc1nc(SCC(=O)O)cc(SCC2=C(C(=O)O)N3C(=O)[C@@H](NC(=O)[C@H](NC(=O)c4cnccc4O)c4ccccc4)[C@H]3SC2)n1 [Example 17, 7-[D-α-(4-hydroxynicotinoylamido)-α-phenylacetamido]-3-(6-carboxymethylthio-2-methylpyrimidin-4-yl)thiomethyl-Δ^3-cephem-4-carboxylic acid] | 1.56 (≈ 2.28 µM) | 0.19 (≈ 0.278 µM) | 50 (≈ 73.2 µM) | 25 (≈ 36.6 µM) | 6.25 (≈ 9.15 µM) | – | 3.13 (≈ 4.58 µM) | 0.19 (≈ 0.278 µM) | 3.13 (≈ 4.58 µM) | 6.25 (≈ 9.15 µM) | 0.39 (≈ 0.571 µM) | 0.39 (≈ 0.571 µM) | – | 0.19 (≈ 0.278 µM) | – | – | 6.25 (≈ 9.15 µM) | 6.25 (≈ 9.15 µM) | 6.25 (≈ 9.15 µM) | MIC (Staphylococcus Onuma; Staphylococcus): 6.25 µg/mL (≈ 9.15 µM) |
